Measured values from article PMC11387175, “Model informed dose regimen optimizing in development of leritrelvir for the treatment of mild or moderate COVID-19” (Frontiers in Pharmacology, 2024).

How the values were obtained:
Omicron BA.5 = system: Omicron BA.5; set-up: method as in Chen et al., 2024; conditions: ref Chen et al., 2024, read-out: concentration for 90% of maximal effect (EC90); cited from earlier work
Beta variant = system: Beta variant; set-up: method as in Chen et al., 2024; conditions: ref Chen et al., 2024, read-out: concentration for 90% of maximal effect (EC90); cited from earlier work
[1] = system: CYP1A2, CYP2B6, CYP2C8, CYP2C9, CYP2C19, and CYP2D6; experiment: Metabolizing enzyme identification (in-house data); format: in vitro ADME
SARS-CoV-2 [2] = conditions: COVID-19 patients; 400 mg TID alone or 300 mg with 100 mg RTV BID; ref Wang et al., 2023; cited from earlier work
[3] = Population pharmacokinetic analysis of phase I plasma concentrations (SAD, MAD, food effect); format: in vivo, human
Description: (§1) The data obtained from a phase I clinical trial assessing the safety, tolerability, pharmacokinetics, and impact of food on leritrelvir Pharmacokinetics in healthy adult subjects (NCT05829551) were utilized in the PopPK analysis. The trial was designed as a randomized, double-blind, placebo-controlled study involving escalating single and multiple doses. The study design is outlined in Figure 1. In the single-ascending dose (SAD) arm, participants received leritrelvir tablets alone or with 100 mg of RTV. In the multiple-ascending dose (MAD) arm, leritrelvir tablets were given alone or with 100 mg RTV twice-daily on Days 1–4, followed by a single dose on Day 5, or thrice-daily on Days 1–4, followed by a single dose on Day 5. In the food consumption study arm, leritrelvir tablets alone or with 100 mg RTV were administered once during each dosing period after an overnight fast of at least 10 h or following a standard meal (high-fat, high-calorie) on Day 1. Each dosing period included a single administration, totaling two administrations, with a minimum interval of 8 days between periods.
FIGURE 1 Overall study design diagram. The study comprised three distinct components: a single-ascending dose study (SAD), a food effect study, and a multiple-ascending dose study (MAD). The SAD portion of the study was divided into two parts: Part 1 involved a dose escalation study of single-agent administration of RAY1216 tablets (S-1, S-2, and S-3), while Part 2 focused on the combination of RAY1216 tablets with 100 mg RTV (S-1R, S-2R, and S-3R). It should be noted that the S-2R and S-3R groups were initially planned but were ultimately not conducted due to dose-undetermined factors. The food effect study (FE) entails the administration of single doses of RAY1216 tablets at 800 mg (FE-1) and in combination with RTV at 500 mg (FE-2) to groups of 12 subjects. Group A undergoes a fasting administration cycle followed by a postprandial administration cycle, while Group B experiences the reverse order of administration cycles. The two cycles consist of crossover administration with a washout period lasting a minimum of 8 days. The MAD involves the co-administration of RAY1216 tablets (300 mg, 500 mg, and 700 mg) with 100 mg RTV in a BID dosing regimen, with escalating doses administered over 5 consecutive days and solely in the morning on the 5th day. Furthermore, a 400 mg RAY1216 single-agent TID dosing regimen administered over 5 consecutive days with administration limited to the morning on the 5th day.
Leritrelvir PK data was analyzed utilizing nonlinear mixed-effects modeling (NONMEM) ([Lindstrom and Bates, 1990]) and implemented with NONMEM version 7.5 (ICON Development Solutions. Ellicott City, Maryland, USA). The estimation algorithm used was the first-order conditional estimation method with interaction (FOCEI) of interindividual variability and residual variability. Perl Speaks NONMEM (PsN) version 4.2 (Uppsala University, Sweden) ([Lindbom et al., 2004]; [Lindbom et al., 2005]) and R version 4.1.2 were used as tools for executing NONMEM and summarizing outcomes. The model evaluated the impact of age, weight, body mass index, gender, albumin, alanine aminotransferase, aspartate aminotransferase, alkaline phosphatase, serum creatinine, creatinine clearance rate, total bilirubin, gamma-glutamyl transpeptidase, food consumption, and concomitant medication on the pharmacokinetics of leritrelvir. The final PopPK model was determined through a stepwise forward addition (p < 0.01) and backward deletion (p < 0.001) approach. The specifics of the model development process are outlined in the Supplementary Material. Evaluation of the final PopPK model was conducted using goodness-of-fit plots, prediction-corrected visual predictive check (pcVPC) ([Bergstrand et al., 2011]), bootstrapping ([Ette, 1997]), and shrinkage assessments ([Savic and Karlsson, 2009]). […]

wild strain of COVID-19 = experiment: Target concentration needed to achieve EC90; format: cell-based, SARS-CoV-2
wild-type strain = system: wild-type strain; set-up: method as in Chen et al., 2024; conditions: ref Chen et al., 2024, read-out: concentration for 90% of maximal effect (EC90); cited from earlier work
[4] = Phase I safety and tolerability in healthy subjects; format: in vivo, human; conditions: monotherapy or in combination with ritonavir
Description: as §1

[5] = system: SARS-CoV-2 βCoV/KOR/KCDC03/2020 strain; set-up: method as in Chen et al., 2023; conditions: Vero cells, ref Chen et al., 2023, cited from earlier work
SARS-CoV-2 [6] = system: SARS-CoV-2; set-up: method as in Zhan et al., 2024; conditions: ref Zhan et al., 2024, cited from earlier work
Omicron BA.1 = system: Omicron BA.1; set-up: method as in Chen et al., 2024; conditions: ref Chen et al., 2024, read-out: concentration for 90% of maximal effect (EC90); cited from earlier work
Alpha variant = system: Alpha variant; set-up: method as in Chen et al., 2024; conditions: ref Chen et al., 2024, read-out: concentration for 90% of maximal effect (EC90); cited from earlier work
Delta variant = system: Delta variant; set-up: method as in Chen et al., 2024; conditions: ref Chen et al., 2024, read-out: concentration for 90% of maximal effect (EC90); cited from earlier work
CYP3A = experiment: Metabolizing enzyme identification (in-house data); format: in vitro ADME

O=C(NC1CCCC1)C(=O)[C@H](C[C@@H]1CCNC1=O)NC(=O)[C@@H]1[C@H]2CCC[C@H]2CN1C(=O)[C@@H](NC(=O)C(F)(F)F)C1CCCCC1 [leritrelvir]
EC90 (Omicron BA.5): 363 nM
EC90 (Beta variant): 688 nM
involvement of other CYP isoforms in metabolism [1]: minimal to no involvement
duration of viral shedding (SARS-CoV-2 [2]): 166 h
duration of viral shedding shorter than the placebo group (SARS-CoV-2 [2]): 4.2 days
ratio of estimated clearance of leritrelvir to leritrelvir combined with RTV ([3]; 44.4/12.2): 3.64
Absorption lag time, ALAG1: Bootstrapping Median (95% CI) ([3]; Comb (with RTV)): 0.166 (0.131–0.185) hr
Absorption lag time, ALAG1: Population model estimates (%RSE) [95% CI] ([3]; Comb (with RTV)): 0.166 h
Absorption rate, Ka: Bootstrapping Median (95% CI) ([3]; Comb (with RTV)): 0.170 (0.154–0.185) hr^-1
Absorption rate, Ka: Population model estimates (%RSE) [95% CI] ([3]; Comb (with RTV)): 0.169 h⁻¹
Clearance, CL: Bootstrapping Median (95% CI) ([3]; Comb (with RTV)): 12.2 (10.7–14.0) L/h
Clearance, CL: Population model estimates (%RSE) [95% CI] ([3]; Comb (with RTV)): 12.2 L/h
Duration of zero order absorption, D1: Bootstrapping Median (95% CI) ([3]; Comb (with RTV)): 0.0719 (0.0412–0.129) hr
Duration of zero order absorption, D1: Population model estimates (%RSE) [95% CI] ([3]; Comb (with RTV)): 0.0684 h
Intercompartment clearance between the central compartment and peripheral compartment, Q: Population model estimates (%RSE) [95% CI] ([3]; Comb (with RTV)): 0.611 L/h
Volume distribution of peripheral compartment, Vc: Bootstrapping Median (95% CI) ([3]; Comb (with RTV)): 9.90 (7.68–13.2) L
Volume distribution of peripheral compartment, Vc: Population model estimates (%RSE) [95% CI] ([3]; Comb (with RTV)): 9.78 L
Volume distribution of peripheral compartment, Vp: Bootstrapping Median (95% CI) ([3]; Comb (with RTV)): 9.24 (6.93–12.8) L
Volume distribution of peripheral compartment, Vp: Population model estimates (%RSE) [95% CI] ([3]; Comb (with RTV)): 9.30 L
Absorption lag time, ALAG1: Bootstrapping Median (95% CI) ([3]; Mono (leritrelvir alone)): 0.188 (0.164–0.2) hr
Absorption lag time, ALAG1: Population model estimates (%RSE) [95% CI] ([3]; Mono (leritrelvir alone)): 0.189 h
Absorption rate, Ka: Bootstrapping Median (95% CI) ([3]; Mono (leritrelvir alone)): 0.292 (0.258–0.329) hr^-1
Absorption rate, Ka: Population model estimates (%RSE) [95% CI] ([3]; Mono (leritrelvir alone)): 0.293 h⁻¹
Clearance, CL: Bootstrapping Median (95% CI) ([3]; Mono (leritrelvir alone)): 44.2 (39.0–50.7) L/h
Clearance, CL: Population model estimates (%RSE) [95% CI] ([3]; Mono (leritrelvir alone)): 44.4 L/h
Duration of zero order absorption, D1: Bootstrapping Median (95% CI) ([3]; Mono (leritrelvir alone)): 0.078 (0.0359–0.171) hr
Duration of zero order absorption, D1: Population model estimates (%RSE) [95% CI] ([3]; Mono (leritrelvir alone)): 0.0722 h
Intercompartment clearance between the central compartment and peripheral compartment, Q: Population model estimates (%RSE) [95% CI] ([3]; Mono (leritrelvir alone)): 5.57 L/h
Volume distribution of peripheral compartment, Vc: Bootstrapping Median (95% CI) ([3]; Mono (leritrelvir alone)): 18.7 (14.3–25.3) L
Volume distribution of peripheral compartment, Vc: Population model estimates (%RSE) [95% CI] ([3]; Mono (leritrelvir alone)): 18.9 L
Volume distribution of peripheral compartment, Vp: Bootstrapping Median (95% CI) ([3]; Mono (leritrelvir alone)): 58.2 (44.7–79.5) L
Volume distribution of peripheral compartment, Vp: Population model estimates (%RSE) [95% CI] ([3]; Mono (leritrelvir alone)): 58.2 L
Occasion variability of CL after multiple dose for 12 h, OC1.CL: Bootstrapping Median (95% CI) ([3]; cell for OC2.CL (96 h) is empty below): 18.7 (10–29.3) %
Occasion variability of Vc after multiple dose for 12 h, OC1.Vc: Bootstrapping Median (95% CI) ([3]; cell for OC2.Vc (96 h) is empty below): 53.1 (34–82.5) %
Proportional error of fed subjects within 2 h after dose: Bootstrapping Median (95% CI) ([3]; fed subjects, 0-2 h post-dosing): 70.5 (56.4–80.7) %
Impact of food consumption on D1, D1.FED: Bootstrapping Median (95% CI) ([3]; fed vs fasted): 1.33 (1.22–1.49)
Impact of food consumption on F1, F1.FED: Bootstrapping Median (95% CI) ([3]; fed vs fasted): 1.50 (1.25–1.82)
Impact of food consumption on Ka, Ka.FED: Bootstrapping Median (95% CI) ([3]; fed vs fasted): 21.3 (10.8–41)
Inter-individual variability CL: Bootstrapping Median (95% CI) ([3]; in vivo): 29.9 (25.5–34.6) %
Inter-individual variability D1: Bootstrapping Median (95% CI) ([3]; in vivo): 152 (114–189) %
Inter-individual variability Ka: Bootstrapping Median (95% CI) ([3]; in vivo): 25.3 (20.7–29.4) %
Inter-individual variability Vc: Bootstrapping Median (95% CI) ([3]; in vivo): 79.8 (64.7–93.4) %
Inter-individual variability Vp: Bootstrapping Median (95% CI) ([3]; in vivo): 43.6 (31–52.5) %
Residual variability, Proportional residual: Bootstrapping Median (95% CI) ([3]; in vivo): 24.2 (22.4–26.1) %
enhancement of exposure of leritrelvir by co-administration with RTV ([3]; with RTV vs alone): approximately 4 fold
concentration needed to achieve EC90 (wild strain of COVID-19): 0.165 µg/mL
EC90 (wild-type strain): 228 nM
Grade 3 or higher adverse events (AEs) [4]: No Grade 3 or higher adverse events (AEs) were reported
changes in corrected QT (QTc) interval, pulse rate (PR) interval, heart rate, and blood pressure [4]: no meaningful changes were observed
dose-dependent adverse reactions [4]: No dose-dependent adverse reactions were observed
serious adverse events (SAEs) [4]: no serious adverse events (SAEs) occurred
IC90 ([5]; read-out: 90% inhibitory concentration (IC90)): 92 nM
IC50 ([5]; read-out: half maximal inhibitory concentration (IC50)): 36 nM
decrease in the SARS-CoV-2 viral load compared to the placebo (SARS-CoV-2 [6]; 400 mg TID, after a 3-day treatment period): approximately tenfold
reduction in the time to sustained clinical recovery of all 11 COVID-19 symptoms compared to the placebo (SARS-CoV-2 [6]; oral 400 mg TID for 5 days): 20.3 h
EC90 (Omicron BA.1): 208 nM
EC90 (Alpha variant): 351 nM
EC90 (Delta variant): 254 nM
role of CYP3A in metabolism (CYP3A): primary metabolizing enzyme
